Reference: patent EP0622356A1, “Indoloylguanidine derivatives as inhibitors of sodium-hydrogen exchange” (SUMITOMO PHARMACEUTICALS COMPANY, LIMITED, priority 1993, dated 1994)
Counter-ions that a name gives are not always drawn. Like-named read-outs stand apart in the source and are kept apart here. Blank lines part the entries; values can stand above or below the compound they belong to.

Tests used:
[1] = biological target: T1, Na⁺/H⁺ exchanger (Rattus norvegicus, UniProt P26431); assay: Inhibition of Na⁺/H⁺ exchanger activity in vitro (change in cell viability during acid loading); format: cell-based; settings: minimum effective concentration, vascular smooth muscle cells isolated from the rat thoracic aorta
T1 construct: using the vascular smooth muscle cells isolated from the rat thoracic aorta; endogenous in cells; host or cells: primary vascular smooth muscle cells isolated from rat thoracic aorta
T1 sequence (P26431 whole entry): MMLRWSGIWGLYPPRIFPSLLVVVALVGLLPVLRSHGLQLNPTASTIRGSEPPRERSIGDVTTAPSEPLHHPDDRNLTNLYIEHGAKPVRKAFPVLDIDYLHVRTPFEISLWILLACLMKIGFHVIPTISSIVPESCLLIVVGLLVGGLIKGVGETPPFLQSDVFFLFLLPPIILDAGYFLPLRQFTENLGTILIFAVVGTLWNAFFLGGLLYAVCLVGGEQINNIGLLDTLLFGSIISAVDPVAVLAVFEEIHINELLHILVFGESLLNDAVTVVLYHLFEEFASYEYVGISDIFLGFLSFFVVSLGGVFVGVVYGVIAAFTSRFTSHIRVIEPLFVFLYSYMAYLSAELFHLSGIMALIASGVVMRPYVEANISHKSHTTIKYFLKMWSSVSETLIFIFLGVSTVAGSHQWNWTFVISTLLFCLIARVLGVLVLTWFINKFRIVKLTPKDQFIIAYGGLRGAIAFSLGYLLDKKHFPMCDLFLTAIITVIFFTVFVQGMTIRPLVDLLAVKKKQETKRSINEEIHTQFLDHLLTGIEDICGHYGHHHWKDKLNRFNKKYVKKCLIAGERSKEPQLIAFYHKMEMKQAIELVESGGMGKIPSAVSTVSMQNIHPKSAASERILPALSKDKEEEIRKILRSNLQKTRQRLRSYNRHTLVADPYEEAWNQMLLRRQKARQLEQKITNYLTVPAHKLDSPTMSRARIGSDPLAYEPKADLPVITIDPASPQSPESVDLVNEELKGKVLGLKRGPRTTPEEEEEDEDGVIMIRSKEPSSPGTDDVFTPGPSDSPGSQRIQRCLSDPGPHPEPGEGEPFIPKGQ
Experimental: The experiment was performed by modifying the method of Mungre et al. described in Exp. Cell Res., 193, 236 (1991). That is, inhibition of the Na⁺/H⁺ exchanger activity was evaluated by the change in cell viability during acid loading, using the vascular smooth muscle cells isolated from the rat thoracic aorta.
The compounds of the present invention shown in Examples were evaluated by the minimum effective concentration (MEC) for the inhibition of the Na⁺/H⁺ exchanger activity.

[2] = biological target: T1, Na⁺/H⁺ exchanger; assay: Inhibition of Na⁺/H⁺ exchanger activity in vitro (change in intracellular pH during acid loading); format: cell-based
Experimental: That is, inhibition of the Na⁺/H⁺ exchanger activity was evaluated by the change in intracellular pH during acid loading, using the vascular smooth muscle cells isolated from the rat thoracic aorta.

[3] = system: arrhythmia induced by reperfusion after rat coronary artery occlusion; assay: Inhibition of ischemia- and reperfusion-induced arrhythmia in vivo
Experimental: The experiment was performed by modifying the method of Crome et al. described in J. Cardiovasc. […] That is, the prevention of arrhythmia induced by reperfusion after rat coronary artery occlusion was evaluated by the incidence of ventricular tachycardia and ventricular fibrillation as well as the mortality.

[4] = vascular smooth muscle cells isolated from the rat thoracic aorta, change in intracellular pH during acid loading, read-out: IC₅₀

Structure (SMILES): CN(C)c1nc(N)c(C(=O)N=C(N)N)nc1Cl [Dimethyl amiloride, reference compound]
- Inhibition of Na^+/H^+ Exchanger MEC [1]: 3.0 µM
- IC50 [2]: 600 nM

Structure (SMILES): CCN(c1nc(N)c(C(=O)NC(=N)N)nc1Cl)C(C)C [EIPA, 5-N-ethyl-N-isopropyl amiloride, reference compound]
- Incidence of Ventricular Fibrillation ([3]; dose 0.3 mg/kg): 56%
- Incidence of Ventricular Tachycardia ([3]; dose 0.3 mg/kg): 100%
- Mortality ([3]; dose 0.3 mg/kg): 44%
- Incidence of Ventricular Fibrillation ([3]; dose 1 mg/kg): 0%
- Incidence of Ventricular Tachycardia ([3]; dose 1 mg/kg): 43%
- Mortality ([3]; dose 1 mg/kg): 0%

Structure (SMILES): Cn1c(C(=O)N=C(N)N)cc2ccccc21 [Example 1, 1-methyl-2-indoloylguanidine hydrochloride]
- Incidence of Ventricular Fibrillation ([3]; dose 0.1 mg/kg): 10%
- Incidence of Ventricular Tachycardia ([3]; dose 0.1 mg/kg): 70%
- Mortality ([3]; dose 0.1 mg/kg): 10%
- Incidence of Ventricular Fibrillation ([3]; dose 0.3 mg/kg): 0%
- Incidence of Ventricular Tachycardia ([3]; dose 0.3 mg/kg): 50%
- Mortality ([3]; dose 0.3 mg/kg): 0%
- IC50 [2, 4]: 58 nM

Structure (SMILES): CC(C)Oc1cccc2c1cc(C(=O)NC(=N)N)n2C [Example 58, 4-Isopropoxy-1-methy1-2-indoloylguanidine hydrochloride]
- Inhibition of Na^+/H^+ Exchanger MEC [1]: 0.3 µM

Structure (SMILES): Cn1c(C(=O)N=C(N)N)cc2c(Cl)ccc(OCCCN)c21 [Example 118, 7-(3-Aminopropoxy)-4-chloro-1-methyl-2-indoloylguanidine hydrochloride]
- IC50 [2, 4]: 10 nM

Continued, in another order:

- IC50 [2, 4]: 140 nM
Structure (SMILES): NC(N)=NC(=O)c1nc(Cl)c(N2CCCCCC2)nc1N [5-Hexamethylene amiloride, reference compound]
- Inhibition of Na^+/H^+ Exchanger MEC [1]: 0.3 µM

- IC50 [2, 4]: 50 nM
Structure (SMILES): Cn1c(C(=O)N=C(N)N)cc2cccc(Cl)c21 [Example 8, 7-Chloro-1-methyl-2-indoloylguanidine hydrochloride]

- IC50 [2, 4]: 2100 nM
Structure (SMILES): COc1cccc2c1cc(C(=O)N=C(N)N)n2C [Example 22, 4-Methoxy-1-methyl-2-indoloylguanidine hydrochloride]

- IC50 [2, 4]: 0.9 nM
Structure (SMILES): Cn1c(C(=O)N=C(N)N)cc2c(C(F)(F)F)cccc21 [Example 29, 1-Methyl-4-trifluoromethyl-2-indoloylguanidine hydrochloride]

- IC50 [2, 4]: 20 nM
Structure (SMILES): Cn1c(C(=O)NC(=N)N)cc2c(F)cccc21 [Example 55, 4-Fluoro-1-methyl-2-indoloylguanidine hydrochloride]
